Experimental data reported in ChEMBL document CHEMBL3217410, “New potent, short-linker BODIPY-630/650TM labelled fluorescent adenosine receptor agonists” (Medchemcomm, 2012).
Activity calls are given as the source filed them. The rule behind the calls is not given here.

What was measured:
[1] = biological target: T1, Adenosine receptor A1 (Homo sapiens) (UniProt P30542); test: (§1) Agonist activity at human adenosine A1 receptor expressed in CHO cells assessed as Gi-mediated inhibition of forskolin-stimulated SPAP secretion incubated for 10 mins prior to forskolin challenge measured after 5 hrs by spectrophotometry; type: functional, cell-based
T1 sequence (whole entry): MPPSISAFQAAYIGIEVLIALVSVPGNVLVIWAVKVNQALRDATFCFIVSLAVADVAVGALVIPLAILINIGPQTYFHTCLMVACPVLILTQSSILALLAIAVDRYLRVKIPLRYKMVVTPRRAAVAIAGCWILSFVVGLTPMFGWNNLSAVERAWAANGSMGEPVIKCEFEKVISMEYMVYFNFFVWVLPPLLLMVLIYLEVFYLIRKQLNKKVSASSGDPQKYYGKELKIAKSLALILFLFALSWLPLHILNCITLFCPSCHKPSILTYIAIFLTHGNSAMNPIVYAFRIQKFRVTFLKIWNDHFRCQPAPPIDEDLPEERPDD

[2] = biological target: T1, Adenosine receptor A1 (Homo sapiens); test: (§2) Agonist activity at human adenosine A1 receptor expressed in CHO cells assessed as Gs-mediated activation of forskolin-stimulated SPAP secretion incubated for 10 mins prior to forskolin challenge measured after 5 hrs by spectrophotometry; type: functional, cell-based
[3] = biological target: T1, Adenosine receptor A1 (Homo sapiens); test: Agonist activity at human adenosine A1 receptor expressed in CHO cells assessed as Gi-mediated inhibition of forskolin-stimulated SPAP secretion incubated for 10 mins prior to forskolin challenge measured after 5 hrs in presence of 1 uM adenosine A1 receptor antagonist XAC by spectrophotometry; type: functional, cell-based
[4] = biological target: T1, Adenosine receptor A1 (Homo sapiens); test: (§3) Displacement of [3H]DPCPX from human adenosine A1 receptor expressed in CHO cells after 2 hrs by scintillation counting analysis relative to control; type: cell-based
Adenosine receptor A1 [5] = biological target: T2, Adenosine receptor A1 (Homo sapiens, UniProt P30542); test: as §1; type: functional, cell-based
T2 sequence (P30542 whole entry): T1 sequence (whole entry)

Adenosine receptor A1 [6] = biological target: T2, Adenosine receptor A1; test: as §2; type: functional, cell-based
Adenosine receptor A1 [7] = biological target: T2, Adenosine receptor A1; test: as §3; type: cell-based
[8] = biological target: T1, Adenosine receptor A1 (Homo sapiens); test: Binding affinity to human adenosine A1 receptor expressed in CHO cells at 100 nM after 30 mins by confocal microscopy; type: cell-based
[9] = biological target: T1, Adenosine receptor A1 (Homo sapiens); test: Binding affinity to human adenosine A1 receptor expressed in CHO cells at 100 nM after 30 mins by confocal microscopy in presence of DPCPX; type: cell-based
[10] = biological target: T1, Adenosine receptor A1 (Homo sapiens); test: Agonist activity at human adenosine A1 receptor expressed in CHO cells assessed as Gs-mediated activation of forskolin-stimulated SPAP secretion up to 10^-5 M incubated for 10 mins prior to forskolin challenge measured after 5 hrs by spectrophotometry; type: functional, cell-based
[11] = biological target: T1, Adenosine receptor A1 (Homo sapiens); test: Binding affinity to human adenosine A1 receptor expressed in CHO cells assessed as internalization at 100 nM after 30 mins by confocal microscopy; type: cell-based

Structure (SMILES)	inhibition [1]	Activity [2]	Activity [3]	Activity [4]	IC50 (Adenosine receptor A1 [5])	EC50 (Adenosine receptor A1 [6])	Ki (Adenosine receptor A1 [7])	Activity [8]	Activity [9]	Activity [10]	Activity [11]
CCNC(=O)[C@H]1O[C@@H](n2cnc3c(N)ncnc32)[C@H](O)[C@@H]1O	105%	177%	inactive	73%							
CCNC(=O)[C@H]1O[C@@H](n2cnc3c(NCCNC(=O)COc4ccc(/C=C/C5=[N+]6C(=Cc7ccc(-c8cccs8)n7[B-]6(F)F)C=C5)cc4)ncnc32)[C@H](O)[C@@H]1O	100%	64%	inactive	50%	2.04 nM	234 nM	363 nM	Active	inactive		
CCNC(=O)[C@H]1O[C@@H](n2cnc3c(NCCCCNC(=O)COc4ccc(/C=C/C5=[N+]6C(=Cc7ccc(-c8cccs8)n7[B-]6(F)F)C=C5)cc4)ncnc32)[C@H](O)[C@@H]1O	101%	155%	inactive	43%	5.25 nM	2340 nM	263 nM		inactive		
CCNC(=O)[C@H]1O[C@@H](n2cnc3c(NCCOCCOCCOCCNC(=O)COc4ccc(/C=C/C5=[N+]6C(=Cc7ccc(-c8cccs8)n7[B-]6(F)F)C=C5)cc4)ncnc32)[C@H](O)[C@@H]1O	99%	inactive	inactive		191 nM						
CCNC(=O)[C@H]1O[C@@H](n2cnc3c(NCCCNC(=O)COc4ccc(/C=C/C5=[N+]6C(=Cc7ccc(-c8cccs8)n7[B-]6(F)F)C=C5)cc4)ncnc32)[C@H](O)[C@@H]1O	97%	188%	inactive	59%	0.49 nM	263 nM	417 nM	Active	inactive		
CCNC(=O)[C@H]1O[C@@H](n2cnc3c(NCCCCCCCCNC(=O)COc4ccc(/C=C/C5=[N+]6C(=Cc7ccc(-c8cccs8)n7[B-]6(F)F)C=C5)cc4)ncnc32)[C@H](O)[C@@H]1O		inactive	inactive		26.9 nM				inactive	inactive	
CCNC(=O)[C@H]1O[C@@H](n2cnc3c(NCCCCCCCCCCCNC(=O)COc4ccc(/C=C/C5=[N+]6C(=Cc7ccc(-c8cccs8)n7[B-]6(F)F)C=C5)cc4)ncnc32)[C@H](O)[C@@H]1O		inactive	inactive		129 nM				inactive	inactive	Active
CCNC(=O)[C@H]1O[C@@H](n2cnc3c(NCCOCCOCCNC(=O)COc4ccc(/C=C/C5=[N+]6C(=Cc7ccc(-c8cccs8)n7[B-]6(F)F)C=C5)cc4)ncnc32)[C@H](O)[C@@H]1O	102%	inactive	inactive		74.1 nM			Active	inactive		
